Among the test systems are OVCAR-3 ovarian; IGROV1 ovarian; OVCAR-8 ovarian; SR leukemia; MALME-3M melanoma; SNB-19 CNS; RXF 393 renal; NCI-H226 lung; HCT-15 colon; RPMI-8226 leukemia; EKVX NSCLC; UO-31 renal; ACHN renal.
Common to all, as to assay: NCI anticancer screen, dose series, 48 h

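Cultured in 96-well plates, cells were exposed to test compound for 48 hours across five concentrations. TGI marks complete inhibition of growth.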

Consider `COc1ccc2c(c1)c(Cc1c(C)n(C)c3ccc(OC)cc13)c(C)n2C`, for which the TGI with OVCAR-3 ovarian, in the assay on IGROV1 ovarian, with OVCAR-8 ovarian, with SR leukemia, with MALME-3M melanoma and in the assay with SNB-19 CNS was > 100 µM each time. For the same compound, the TGI with RXF 393 renal, in the assay with NCI-H226 lung, in the assay with HCT-15 colon, in the assay with RPMI-8226 leukemia, in the assay with EKVX NSCLC and in the assay on UO-31 renal was > 100 µM throughout. Moreover, the TGI in the assay with ACHN renal was > 100 µM.
As to `O=S(=O)(CC1=NC2C=CC=CC2N=C1)NCc1ccccc1` (centres undefined), the TGI in the assay with OVCAR-3 ovarian, with IGROV1 ovarian, in the assay with OVCAR-8 ovarian, with MALME-3M melanoma, in the assay with SNB-19 CNS and in the assay on RXF 393 renal was > 100 µM in each case. The TGI in the assay on NCI-H226 lung, with HCT-15 colon, with RPMI-8226 leukemia, in the assay with EKVX NSCLC and with ACHN renal was > 100 µM each time.
Turning to `Cc1ccc2sc3cc(=O)cc(C)c-3nc2c1`, the TGI in the assay on OVCAR-3 ovarian, in the assay on IGROV1 ovarian, in the assay on OVCAR-8 ovarian, in the assay with SR leukemia, in the assay on SNB-19 CNS and with NCI-H226 lung was > 100 µM in each case. The TGI with HCT-15 colon, in the assay on EKVX NSCLC, in the assay on UO-31 renal and in the assay with ACHN renal was > 100 µM throughout.
Turning to `CCCCOC(=O)/C(CC(=O)C=C(C)C)=N\NS(=O)(=O)c1ccc(C)cc1`, the TGI with OVCAR-3 ovarian was > 100 µM; in the assay on IGROV1 ovarian, > 100 µM; in the assay with OVCAR-8 ovarian, > 100 µM; in the assay on SR leukemia it was 71.8 µM; in the assay with MALME-3M melanoma, > 100 µM; in the assay on SNB-19 CNS, > 100 µM. The TGI in the assay with RXF 393 renal, in the assay with NCI-H226 lung, in the assay with HCT-15 colon, in the assay on RPMI-8226 leukemia, in the assay with EKVX NSCLC and in the assay with UO-31 renal was > 100 µM each time. For the same compound, in the assay on ACHN renal, the TGI was > 100 µM.
Consider `Cc1ccc(S(=O)(=O)N/N=C2\C(=O)C3CC2C(Cl)C3Cl)cc1` (centres undefined), for which the TGI with OVCAR-3 ovarian, in the assay with IGROV1 ovarian, with OVCAR-8 ovarian, in the assay with SR leukemia, in the assay with MALME-3M melanoma and with SNB-19 CNS was > 100 µM throughout. Besides, the TGI with NCI-H226 lung, with HCT-15 colon, in the assay with RPMI-8226 leukemia, with UO-31 renal and with ACHN renal was > 100 µM each time.
Turning to `C1=CCN(c2ccccc2)CC1`, the TGI was 61.2 µM in the assay on OVCAR-3 ovarian; 96.3 µM in the assay on IGROV1 ovarian; 81.2 µM in the assay on OVCAR-8 ovarian; > 100 µM with SR leukemia; 46.8 µM with MALME-3M melanoma; > 100 µM in the assay on SNB-19 CNS. For the same compound, the TGI with RXF 393 renal is 35.7 µM; in the assay on HCT-15 colon it was 47.1 µM; with RPMI-8226 leukemia, > 100 µM; in the assay on EKVX NSCLC, > 100 µM; in the assay on UO-31 renal, > 100 µM; in the assay on ACHN renal, 56.8 µM.
As for `O=C(Nc1ccc(C(F)(F)F)cc1[N+](=O)[O-])C(=O)C(C(=O)c1ccc2ccccc2c1)C1OC(=O)c2ccccc21` (centres undefined), the TGI in the assay on OVCAR-3 ovarian is > 51 µM; in the assay on IGROV1 ovarian, > 66.3 µM; in the assay with OVCAR-8 ovarian, 19.8 µM; with SR leukemia it was > 100 µM; with MALME-3M melanoma it was 25.8 µM; in the assay with SNB-19 CNS, 22.5 µM. The TGI with RXF 393 renal was 10.1 µM; in the assay on NCI-H226 lung, 3.29 µM; in the assay with HCT-15 colon it was 51.4 µM; in the assay with RPMI-8226 leukemia it was > 67.3 µM; in the assay with EKVX NSCLC, 21.2 µM; in the assay on UO-31 renal, 28.8 µM. In the assay on ACHN renal, the TGI was > 84.9 µM.
With `COC(=O)c1c/c(=N\NC(=O)CC(=O)Nc2ccccc2Cl)c2ccccc2o1`, the TGI with OVCAR-3 ovarian, in the assay on IGROV1 ovarian, in the assay on OVCAR-8 ovarian, in the assay with SR leukemia, in the assay with SNB-19 CNS and in the assay with NCI-H226 lung was > 100 µM each time. Also, the TGI with HCT-15 colon, with RPMI-8226 leukemia, with EKVX NSCLC, with UO-31 renal and with ACHN renal was > 100 µM throughout.
Turning to `O=C1/C(=C/c2cccc([N+](=O)[O-])c2)COc2ccccc21`, the TGI with OVCAR-3 ovarian is 13.2 µM; with IGROV1 ovarian, > 19.9 µM; with OVCAR-8 ovarian, 9.19 µM; with MALME-3M melanoma, > 50.6 µM; in the assay on SNB-19 CNS, 9.07 µM; in the assay on RXF 393 renal, 12.8 µM. Further, the TGI in the assay with NCI-H226 lung was 22.6 µM; in the assay with HCT-15 colon, 3.11 µM; in the assay with EKVX NSCLC, > 92.2 µM; in the assay on UO-31 renal it was 67.8 µM; with ACHN renal, 8.04 µM.
For `O=C(O)Cc1cc(=O)oc2cc(O)c(Cl)cc12`, the TGI in the assay with OVCAR-3 ovarian, in the assay on IGROV1 ovarian, in the assay on OVCAR-8 ovarian, with MALME-3M melanoma, with SNB-19 CNS and in the assay on NCI-H226 lung was > 100 µM in each case. Further, the TGI with HCT-15 colon, in the assay with RPMI-8226 leukemia, in the assay on EKVX NSCLC and in the assay on ACHN renal was > 100 µM each time.
As to `N#CCCc1nc2ccc(Br)cc2c(=O)n1-c1ccc(O)c([N+](=O)[O-])c1`, the TGI in the assay with OVCAR-3 ovarian is 41.4 µM; in the assay on IGROV1 ovarian it was 47.7 µM; in the assay on OVCAR-8 ovarian, > 100 µM; in the assay on MALME-3M melanoma it was 33.3 µM; in the assay on RXF 393 renal, 32.4 µM; with NCI-H226 lung, 43.3 µM. The TGI with HCT-15 colon is 38.3 µM; with RPMI-8226 leukemia, 40 µM; in the assay on EKVX NSCLC, 74.3 µM; in the assay on UO-31 renal it was 78.9 µM; with ACHN renal it was > 100 µM.
As for `Cc1nc2ccccc2nc1NS(=O)(=O)c1ccc(N)cc1`, the TGI in the assay on OVCAR-3 ovarian, in the assay with IGROV1 ovarian, in the assay with OVCAR-8 ovarian, in the assay with SR leukemia, in the assay with MALME-3M melanoma and in the assay on SNB-19 CNS was > 100 µM throughout. The TGI in the assay on RXF 393 renal, in the assay with NCI-H226 lung, with HCT-15 colon, in the assay with RPMI-8226 leukemia, in the assay with EKVX NSCLC and with UO-31 renal was > 100 µM in each case. For the same compound, the TGI in the assay on ACHN renal was > 100 µM.
